Test results reported in US8809347B2, “Bicyclic aryl and bicyclic heteroaryl substituted triazoles useful as AXL inhibitors” (Rigel Pharmaceuticals, Inc., priority 2006, dated 2014).

molecular target: T1, Axl (Homo sapiens, UniProt P30530); test: Phospho-Akt in-cell Western assay (inhibition of Axl activity); assay type: cell-based; settings: Hela cells; 1 hr pre-treatment; stimulation by Axl-antibody cross-linking; phospho-Akt chemiluminescence normalized to relative cell number
T1 construct: Cells: Hela cells; endogenous in cells; host or cells: HeLa cells
T1 sequence (P30530 26-894): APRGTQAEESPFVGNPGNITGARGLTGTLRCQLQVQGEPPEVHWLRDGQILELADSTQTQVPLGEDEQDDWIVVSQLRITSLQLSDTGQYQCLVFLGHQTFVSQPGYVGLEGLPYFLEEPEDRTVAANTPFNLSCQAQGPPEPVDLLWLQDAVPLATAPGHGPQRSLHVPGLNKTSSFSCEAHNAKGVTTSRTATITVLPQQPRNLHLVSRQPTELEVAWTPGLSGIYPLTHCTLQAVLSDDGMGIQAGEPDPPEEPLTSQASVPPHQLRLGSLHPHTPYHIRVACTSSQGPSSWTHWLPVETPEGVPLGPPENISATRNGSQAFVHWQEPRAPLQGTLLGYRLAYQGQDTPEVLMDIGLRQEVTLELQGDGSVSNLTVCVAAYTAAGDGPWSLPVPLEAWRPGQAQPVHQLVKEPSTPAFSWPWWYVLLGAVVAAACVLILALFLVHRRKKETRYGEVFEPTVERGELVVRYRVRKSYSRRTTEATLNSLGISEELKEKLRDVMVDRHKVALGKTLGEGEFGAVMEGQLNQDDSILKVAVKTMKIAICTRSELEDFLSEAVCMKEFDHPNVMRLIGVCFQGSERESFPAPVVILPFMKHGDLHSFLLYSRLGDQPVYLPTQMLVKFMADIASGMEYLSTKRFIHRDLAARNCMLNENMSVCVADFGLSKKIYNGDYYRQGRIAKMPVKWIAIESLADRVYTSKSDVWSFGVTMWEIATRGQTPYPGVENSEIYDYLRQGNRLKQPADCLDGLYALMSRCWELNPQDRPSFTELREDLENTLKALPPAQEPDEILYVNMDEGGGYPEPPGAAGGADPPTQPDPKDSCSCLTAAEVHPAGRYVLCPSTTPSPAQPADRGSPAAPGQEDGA
Protocol: The compounds of the invention were tested in the following assay for their ability to inhibit Axl activity.
Phospho-Akt in-Cell Western Assay
• Cell culture plate: 96 well assay plate (Corning 3610), white, clear bottom, tissue-culture treated. • Cells: Hela cells. • Starvation medium: For Axl stimulation: 0.5% FCS (fetal calf serum) in DMEM, plus Axl/Fc (extracellular domain of AXL fused to immunoglobulin Fc region) (R&D, 154-AL) 500 ng/mL. • For EGF (epidermal growth factor) stimulation: 0.5% FCS in DMEM (Dulbecco's modified Eagles medium). • Poly-L-Lysine 0.01% solution (the working solution): […], dilute In PBS (phosphate buffered saline). • Axl antibody cross-linking: • 1st: Mouse anti-Axl (R&D, MAB154). • 2nd: Biotin-SP-conjugated AffiniPure goat anti-mouse IgG (H+ L) (Jackson ImmunoResearch #115-065-003). • Fixing buffer: 4% formaldehyde in PBS. • Wash buffer: 0.1% TritonX-100 in PBS. • Quenching buffer: 3% H2O2, 0.1% Azide in wash buffer, Azide and hydrogen peroxide (H2O2) are added fresh. • Blocking buffer: 5% BSA in TBST (tris buffered saline plus 0.1% Tween 20). • Primary antibody: Rabbit anti-human Phospho-Akt antibody (Cell Signaling 9271): 1×250 diluted in blocking buffer. • Secondary antibody: HRP (horse radish peroxidase)-conjugated Goat anti-Rabbit secondary, stock solution: Jackson ImmunoResearch (Goat anti-Rabbit HRP, #111-035-144) 1:1 diluted in glycerol, store at −20° C. The working solution: 1×2000 dilution of stock in blocking buffer. • Chemiluminescent working solution (Pierce, 37030): SuperSignal ELISA (enzyme linked immunosorbant assay) Pico Chemiluminescent substrate. • Crystal Violet solution: Stock: 2.5% Crystal violet in methanol, filtered and kept at ambient temperature. The working solution: dilute the stock 1:20 with PBS immediately before use. • 10% SDS: working solution: 5% SDS (sodium dodecylsulfate), diluted in PBS Methods: Day 1:
A 96 well TC (tissue culture treated) plate was coated with 10 μg/mL poly-L-Lysine at 37° C. for 30 min, washed twice with PBS, and air-dried for 5 minutes before cells were added. Hela cells were seeded at 10,000 cells/well and the cells were starved in 100 μL starvation medium containing Axl/Fc for 24 hrs.
The cells were pre-treated with test compounds by adding 100 μL of 2× test compound to the starvation medium on the cells. The cells were incubated at 37° C. for 1 hr before stimulation.
The cells were stimulated by Axl-antibody cross-linking as follows: A 5× 1st/2nd Axl antibody mixture was made (37.5 μg/mL 1st/100 μg/mL 2nd) in starvation medium and nutated at 4° C. with thorough mixing for 1-2 hours for clustering. The resulting mix was warmed to 37° C. 50 μL of 5× Axl 1st/2nd of antibody cluster was added to the cells and the cells were incubated at 37° C. for 5 min.
After 5 minutes stimulation, the plate was flicked to remove medium and the plate was tapped onto paper towels. Formaldehyde (4.0% in PBS, 100 μL) was added to fix the cells and the cells were incubated at ambient temperature for 20 min without shaking.
The cells were washed with a plate washer buffer to remove the formaldehyde solution. The plate was flicked to removed excess wash buffer and tapped onto paper towels. Quenching buffer (100 μL) was added to each well and the cells were incubated at ambient temperature for 20 minutes without shaking.
The cells were washed with a plate washer buffer to remove the quenching buffer. Blocking buffer (100 μL) was added and the cells were incubated at ambient temperature for at least an hour with gentle shaking.
The cells were washed with a plate washer buffer and diluted primary antibody (50 μL) was added to each well (blocking buffer was added to the negative control wells instead). The plates were incubated overnight at 4° C. with gentle shaking.
The wash buffer was removed, diluted secondary antibody (100 μL) was added, and the cells were incubated at ambient temperature for 1 hour with gentle shaking. […]

IC50 [µM]	Structure (SMILES)
1 to 10	CN1CCN(c2ccc(Nc3nc(N)n(-c4cc(-c5ccccc5)c5c(n4)CCCCCC5)n3)cc2)CC1 [Compound 46, N^3-(4-(4-methylpiperazin-1-yl)phenyl)-1-(4-phenyl-5,6,7,8,9,10-Hexahydrocycloocta[b]-pyridin-2-yl)-1H-1,2,4-triazole-3,5-diamine]
< 1	Nc1nc(Nc2ccc(N3CCN(C4CC5CCC4C5)CC3)cc2)nn1-c1ncnc2c1CCCCCC2 (stereo not drawn) [Compound 24, N^3-(4-(4-(bicyclo[2.2.1]heptan-2-yl)piperazin-1-yl)phenyl)-1-(5,6,7,8,9,10-hexahydrocycloocta[d]pyrimidin-4-yl)-1H-1,2,4-triazole-3,5-diamine]
1 to 10	Nc1nc(Nc2ccc(N3CCC(N4CCCC4)CC3)c(F)c2)nn1-c1cc(-c2ccccc2)c2c(n1)CCCCCC2 [Compound 45, N^3-(3-fluoro-4-(4-(pyrrolidin-1-yl)piperidin-1-yl)phenyl)-1-(4-phenyl-5,6,7,8,9,10-hexahydrocycloocta[b]-pyridin-2-yl)-1H-1,2,4-triazole-3,5-diamine]
1 to 10	Cc1csc2c(-n3nc(Nc4ccc5c(c4)C(=O)NCCCC5)nc3N)ncnc12 [Compound 49, N^3-(1-oxo-1,2,3,4,5,6-hexahydrobenzo[c]azocin-9-yl)-1-(7-methylthieno[3,2-d]pyrimidin-4-yl)-1H-1,2,4-triazole-3,5-diamine]
< 1	Nc1nc(Nc2ccc(N3CCC(CN4CCCC4)CC3)nc2)nn1-c1ncnc2c1CCCCCC2 [Compound 52, N^3-(6-(4-((pyrrolidin-1-yl)methyl)piperidin-1-yl)pyridin-3-yl)-1-(5,6,7,8,9,10-hexahydrocycloocta[d]pyrimidin-4-yl)-1H-1,2,4-triazole-3,5-diamine]
< 1	Nc1nc(Nc2ccc3c(c2)CCN(C2CCCC2)CCC3)nn1-c1ccc(C(F)(F)F)cn1 [Compound 30, N^3-(3-cyclopentyl-1,2,3,4,5,6-hexahydrobenzo[d]azocin-9-yl)-1-(5-(trifluoromethyl)pyridin-2-yl)-1H-1,2,4-triazole-3,5-diamine]
< 1	Nc1nc(Nc2ccc3c(c2)CCCN(C2CCCC2)CC3)nn1-c1ncnc2ccc(F)cc12 [Compound 31, N^3-(3-cyclopentyl-1,2,3,4,5,6-hexahydrobenzo[d]azocin-8-yl)-1-(6-fluoroquinazolin-4-yl)-1H-1,2,4-triazole-3,5-diamine]
< 1	CN1CCN(c2ccc(Nc3nc(N)n(-c4ccc5c(n4)CCCCCC5)n3)cc2)CC1 [Compound 23, 1-(5,6,7,8,9,10-hexahydrocycloocta[b]pyridin-2-yl)-N^3-(4-(4-methylpiperazin-1-yl)phenyl)-1H-1,2,4-triazole-3,5-diamine]
1 to 10	CN1CCN(Cc2ccc(Nc3nc(N)n(-c4ncc5c(n4)CCCCCC5)n3)cc2)CC1 [Compound 9, 1-(5,6,7,8,9,10-hexahydrocycloocta[d]pyrimidin-2-yl)-N^3-(4-((4-methylpiperazin-1-yl)methyl)phenyl)-1H-1,2,4-triazole-3,5-diamine]
1 to 10	Nc1nc(Nc2ccc3c(c2)CCCN(C2CCCC2)CC3)nn1-c1nc2ccccc2s1 [Compound 32, 1-(benzo[d]thiazol-2-yl)-N^3-(3-cyclopentyl-1,2,3,4,5,6-hexahydrobenzo[d]azocin-8-yl)-1H-1,2,4-triazole-3,5-diamine]
< 1	Nc1nc(Nc2ccc(N3CCN(C4CCCCC4)CC3)cc2)nn1-c1ncc2c(n1)CCCCCC2 [Compound 5, N^3-(4-(4-cyclohexylpiperazin-1-yl)phenyl)-1-(5,6,7,8,9,10-hexahydrocycloocta[d]pyrimidin-2-yl)-1H-1,2,4-triazole-3,5-diamine]
< 1	Nc1nc(Nc2ccc(N3CCN(C4CCCCC4)CC3)cc2)nn1-c1cc2c(nn1)CCCCCC2 [Compound 16, N^3-(4-(4-cyclohexylpiperazin-1-yl)phenyl)-1-(5,6,7,8,9,10-hexahydrocycloocta[c]pyridazin-3-yl)-1H-1,2,4-triazole-3,5-diamine]
< 1	Nc1nc(Nc2ccc(N3CCC(N4CCCC4)CC3)c(F)c2)nn1-c1ncnc2c1CCCCCC2 [Compound 35, N^3-(3-fluoro-4-(4-(pyrrolidin-1-yl)piperidin-1-yl)phenyl)-1-(5,6,7,8,9,10-hexahydrocycloocta[d]pyrimidin-4-yl)-1H-1,2,4-triazole-3,5-diamine]
1 to 10	CN(C)[C@@H]1CCN(c2ccc(Nc3nc(N)n(-c4ncc5c(n4)CCCCCC5)n3)cc2)C1 [Compound 6, (R)—N^3-(4-(3-(dimethylamino)pyrrolidin-1-yl)phenyl)-1-(5,6,7,8,9,10-hexahydrocycloocta[d]pyrimidin-2-yl)-1H-1,2,4-triazole-3,5-diamine]
> 20	Nc1nc(Nc2ccc(N3CCN(c4ccc(F)cc4)CC3)cc2)nn1-c1ncc2c(n1)CCCCCC2 [Compound 13, N^3-(4-(4-(4-fluorophenyl)piperazin-1-yl)phenyl)-1-(5,6,7,8,9,10-hexahydrocycloocta[d]pyrimidin-2-yl)-1H-1,2,4-triazole-3,5-diamine]
< 1	Nc1nc(Nc2ccc(OCCN3CCCC3)cc2)nn1-c1cc2c(nn1)CCCCCC2 [Compound 18, 1-(5,6,7,8,9,10-hexahydrocycloocta[c]pyridazin-3-yl)-N^3-(4-(2-(pyrrolidin-1-yl)ethoxy)phenyl)-1H-1,2,4-triazole-3,5-diamine]
1 to 10	Nc1nc(Nc2ccc(N3CCC(N4CCOCC4)CC3)c(F)c2)nn1-c1ncc2c(n1)CCCCCC2 [Compound 25, N^3-(3-fluoro-4-(4-morpholinopiperidin-1-yl)phenyl)-1-(5,6,7,8,9,10-hexahydrocycloocta[d]pyrimidin-2-yl)-1H-1,2,4-triazole-3,5-diamine]
< 1	Cc1csc2c(-n3nc(Nc4ccc5c(c4)CCCN(C4CCCC4)CC5)nc3N)nc(Cl)nc12 [Compound 26, 1-(2-chloro-7-methylthieno[3,2-d]pyrimidin-4-yl)-N^3-(3-cyclopentyl-1,2,3,4,5,6-hexahydrobenzo[d]azocin-8-yl)-1H-1,2,4-triazole-3,5-diamine]
